These are literature values, as cited in US10780172B2, “Docetaxel and human serum albumin complexes” (Zhuhai Beihai Biotech Co., Ltd., priority 2015, dated 2020).

The structures appear in SMILES notation. “Also recorded” adds a separate entry of the source.

Consider `CC(=O)O[C@@]12CO[C@@H]1C[C@H](O)[C@@]1(C)C(=O)[C@H](O)C3=C(C)[C@@H](OC(=O)[C@H](O)[C@@H](NC(=O)OC(C)(C)C)c4ccccc4)C[C@@](O)([C@@H](OC(=O)c4ccccc4)[C@H]21)C3(C)C` [Docetaxel], for which the water solubility entry is on record as “practically insoluble in water; also recorded: very poor water solubility”. Besides, the protein bound result with plasma proteins (in vitro studies, mainly to al-acid glycoprotein, albumin, and lipoproteins) is recorded as “about 94%”. For the same compound, the “in vitro binding to plasma proteins” value with plasma proteins (three cancer patients) is “approximately 97%”. Besides, the “potency relative to paclitaxel in inhibiting microtubule depolymerization” value in the series with microtubule was “about twice as potent as paclitaxel”.
